What was measured:
Conditions in all cases: 72 h
Calu-3 [1] = assay: cell viability relative to DMSO; higher = less toxic
Caco-2 [2] = assay: as above
HepG2 [3] = assay: as above
Vero E6 [4] = assay: as above
U2OS [5] = assay: as above
Calu-3 [6] = assay: drug sensitivity score (DSS) for viability; higher = more toxic; extreme values may be limits of the assay
Caco-2 [7] = assay: as above
HepG2 [8] = assay: as above
Vero E6 [9] = assay: as above
U2OS [10] = assay: as above
Calu-3 [11] = assay: relative viability EC50 (midpoint between 100% and the lowest measured viability); higher = less toxic
Vero E6 [12] = assay: as above
HepG2 [13] = assay: as above
U2OS [14] = assay: as above

| Structure (SMILES) | cell viability (Calu-3 [1]; 1 nM) | cell viability (Calu-3 [1]; 10 nM) | cell viability (Calu-3 [1]; 100 nM) | cell viability (Calu-3 [1]; 1000 nM) | cell viability (Calu-3 [1]; 10000 nM) | cell viability (Caco-2 [2]; 1 nM) | cell viability (Caco-2 [2]; 10 nM) | cell viability (Caco-2 [2]; 100 nM) | cell viability (Caco-2 [2]; 1000 nM) | cell viability (Caco-2 [2]; 10000 nM) | cell viability (HepG2 [3]; 1 nM) | cell viability (HepG2 [3]; 10 nM) | cell viability (HepG2 [3]; 100 nM) | cell viability (HepG2 [3]; 1000 nM) | cell viability (HepG2 [3]; 10000 nM) | cell viability (Vero E6 [4]; 1 nM) | cell viability (Vero E6 [4]; 10 nM) | cell viability (Vero E6 [4]; 100 nM) | cell viability (Vero E6 [4]; 1000 nM) | cell viability (Vero E6 [4]; 10000 nM) | cell viability (U2OS [5]; 1 nM) | cell viability (U2OS [5]; 10 nM) | cell viability (U2OS [5]; 100 nM) | cell viability (U2OS [5]; 1000 nM) | cell viability (U2OS [5]; 10000 nM) | drug sensitivity score (Calu-3 [6]) | drug sensitivity score (Caco-2 [7]) | drug sensitivity score (HepG2 [8]) | drug sensitivity score (Vero E6 [9]) | drug sensitivity score (U2OS [10]) | relative viability EC50 (Calu-3 [11]) | relative viability EC50 (Vero E6 [12]) | relative viability EC50 (HepG2 [13]) | relative viability EC50 (U2OS [14]) |
| --- | --- | --- | --- | --- | --- | --- | --- | --- | --- | --- | --- | --- | --- | --- | --- | --- | --- | --- | --- | --- | --- | --- | --- | --- | --- | --- | --- | --- | --- | --- | --- | --- | --- | --- |
| O=C(/C=C/c1ccc(O)c(O)c1)OCCc1ccccc1 [caffeic-acid-phenethyl-ester] | 95.4% | 97.4% | 99.1% | 94.4% | 90.3% | 92% | 99.6% | 101% | 88.2% | 66.9% | 92% | 106% | 99.6% | 90.2% | 73.9% | 96.9% | 101% | 96.4% | 96.4% | 90.6% | 98.4% | 102% | 98.9% | 99.2% | 69.9% | 0 | 3.2 | 2.3 | 0 | 1.4 | > 10 µM | > 10 µM | – | – |
| CC(C)(C)n1nc(-c2ccc(Cl)cc2)c2c(N)ncnc21 [PP-2] | 104% | 104% | 84.9% | 87% | 37% | 92.3% | 98.6% | 100% | 88.2% | 54.2% | 107% | 98% | 92.6% | 103% | 90.7% | 99.4% | 93.5% | 102% | 95.6% | 47% | 93.4% | 98.4% | 96.7% | 89.7% | 77.3% | 5.4 | 4.2 | 0 | 3.5 | 1.4 | 1.77 µM | 2.49 µM | > 10 µM | > 10 µM |
| NC(=O)N1c2ccccc2CC(=O)c2ccccc21 [oxcarbazepine] | 96.1% | 93.6% | 82.6% | 105% | 95.1% | – | – | – | – | – | 90.8% | 92.3% | 115% | 90.7% | 87.5% | – | – | – | – | – | 101% | 100% | 101% | 96.7% | 99.1% | 0 | – | 0.5 | – | 0 | > 10 µM | – | > 10 µM | > 10 µM |
| Cc1cc([N+](=O)[O-])ccc1NS(=O)(=O)c1cc(Cl)ccc1Cl [FH-535] | 104% | 92.4% | 105% | 101% | 93.2% | 107% | 103% | 110% | 87.2% | 60.3% | 100% | 106% | 94.5% | 96.7% | 50.1% | 98.3% | 102% | 94.1% | 92.8% | 79.2% | 101% | 97.6% | 93.3% | 96.9% | 89.5% | 0 | 3.8 | 3.1 | 0.9 | 0 | > 10 µM | > 10 µM | – | > 10 µM |
| CO[C@@H]1[C@@H](O[C@@H]2O[C@H](C)[C@@H](O[C@H]3C[C@@](C)(O)[C@@H](OC(=O)CC(C)C)[C@H](C)O3)[C@H](N(C)C)[C@H]2O)[C@@H](CC=O)C[C@@H](C)[C@@H](O)/C=C/C=C/C[C@@H](C)OC(=O)C[C@H]1OC(C)=O [josamycin] | 103% | 102% | 106% | 98.2% | 106% | 101% | 94.2% | 100% | 107% | 68% | 107% | 105% | 117% | 95% | 74.4% | 95% | 98.6% | 105% | 92.1% | 99.1% | 101% | 89.3% | 97.5% | 101% | 100% | 0 | 1.1 | 1.7 | 0 | 0 | > 10 µM | > 10 µM | – | > 10 µM |
| O=C(O)CCCO [SODIUM OXYBATE] | 97.3% | 99% | 94.7% | 115% | 112% | – | – | – | – | – | 82.4% | 105% | 92.8% | 90.8% | 110% | 93.6% | 100% | 99.1% | 102% | 87.2% | 103% | 101% | 103% | 96.4% | 100% | 0 | – | 0 | 0 | 0 | > 10 µM | > 10 µM | > 10 µM | > 10 µM |
| Cc1c(NC(=O)OC[C@@H]2COCCN2)cn2ncnc(Nc3ccc4c(cnn4Cc4cccc(F)c4)c3)c12 | 97.2% | 96.4% | 92.4% | 64.5% | 26.4% | 102% | 101% | 85.1% | 88.2% | 69.3% | 89.8% | 104% | 96% | 99.1% | 82.2% | 98.5% | 103% | 91.7% | 84.1% | 60.7% | 96.6% | 101% | 99.4% | 96.3% | 79.3% | 8.2 | 3 | 0.5 | 3.5 | 1.1 | 0.988 µM | – | > 10 µM | > 10 µM |

Reference: the supplement of paper PMC13380429
